Like-named read-outs stand apart in the source and are kept apart here.
Columns and labels:
PDE10A = molecular target: T1, PDE10A (Homo sapiens, UniProt Q9Y233); test: Activity of inhibiting PDE10A activity ([3H]cAMP decomposition inhibiting test); type: biochemical; conditions: for inhibition at 1 µM: read-out: [3H] cAMP decomposition inhibition rate (%); for IC50: read-out: IC50 (concentration at which to inhibit [3H]cAMP decomposition by 50%)
T1 construct: made in house; host or cells: Sf9 insect cells (baculovirus, pVL1393)
Experimental: Activity of Inhibiting PDE10A Activity (^3H]cAMP Decomposition Inhibiting Test)
PCR was performed using DNAs having base sequences described in SEQ ID NO. 1 and SEQ ID NO. 2 as primers and human kidney cDNA as a template to prepare a plasmid containing amplified fragments. The plasmid was cleaved with restriction endonucleases Pst I and Xba I to obtain a Pst I-Xba I fragment of 0.7 kb.
Meanwhile, Est clone (Cosmo Bio, Tokyo) of GenBank, ACCESSION WO 4835 was cleaved with restriction endonucleases Kpn I and Pst I to obtain a Kpn I-Pst I fragment of 1.5 kb.
The resulting Pst I-Xba I fragment of 0.7 kb and Kpn I-Pst I fragment of 1.5 kb were subcloned in a Kpn I-Xba I site of pBluescript II KS(−) (STRATAGENE, La Jolla, Calif., USA),to construct a plasmid having a cDNA fragment completely including a catalyst region of PDE10A. Subsequently, the plasmid was cleaved with restriction endonucleases Kpn I and Not I to obtain a Kpn I-Not I fragment of 2.2 kb.
The resulting Kpn I-Not I fragment of 2.2 kb and a linker having a BamH I-Kpn I cleavage surface prepared by synthetic DNA having base sequences described in SEQ ID NOS. 3 and 4 were subcloned in a BamH I-Not I site of pVL1393 (PharMingen, San Diego, Calif., USA) to obtain a plasmid for preparation of Baculovirus. The plasmid contains a DNA encoding a peptide in which methionine, FLAG tag and a peptide having a 64th to 779th amino acid sequence of PDE10A [GenBank, ACCESSION NP 006652: Gene, vol. 234, p. 109 (1999), J. Biol. Chem., vol. 274, p. 18438 (1999)] are bound in the order.
The above gene recombinational manipulation was performed according to the method described in Molecular Cloning, 2nd edition, Cold Spring Harbor Laboratory Press, New York (1989).
The expression of PDE10A was conducted according to the Baculovirus expression vector system manual (PharMingen) using insect cells. As insect cells, Sf9 cells (Asahi Technoglass, Tokyo) were used. Sf9 cells were infected with a supernatant (co-transfection sup) containing PDE10A expression virus prepared according to the manual, and cultured at 27° C. for 4 days. The cells were recovered, washed with a phosphate-buffered saline (PBS), and then suspended in an extraction solution [20 mmol/L Tris-acetate (pH 7.5), 2 mmol/L MgCl2, 1 mmol/L dithiothreitol, 1 mmol/L ethylenediaminetetraacetic acid (EDTA), 0.25 mol/L sucrose, 250 unit/mL aprotinin, 40 μg/mL phenylmethylsulfonyl fluoride, and 1 μg/mL pepstatin A]. The cells were disrupted in ice with the maximum output under conditions of 5 seconds and five times using an ultrasonic disruption machine (TOMY model UR-200R, TOMY, Tokyo). A soluble fraction was obtained by centrifugation under 10,000 rpm of the fraction at 4° C. for 30 minutes, and the resulting soluble fraction was used for measuring the PDE activity.
The PDE activity was measured according to the method described in Methods Enzymol., vol. 159, p. 457 (1988).
Using [^3H]cAMP as a substrate, an enzyme reaction was conducted in a reaction solution containing 300 μL of 50 mmol/L N,N-bis (2-hydroxyethyl)-2-aminoethanesulfonic acid (pH 7.2), 1 mmol/L MgCl2 and 0.1 mmol/L ethylene glycol-bis (β-aminoethyl ether)-N,N,N′,N′-tetraacetic acid: EGTA). The concentration of the substrate was 0.2 μmol/L. To 95 μL of an enzyme dilute solution were added 5 μL of a test compound (DMSO solution) and 200 μL of a substrate solution. The mixture was incubated at 30° C. for 20 minutes, and then HCl was added to stop the reaction. The reaction product (5′-AMP) was converted to adenosine using 5′-nucleotidase, and separated the unreacted product from the reactant by DEAE-Sephadex A-25 column (Amersham Pharmacia Biotech, Uppsala, Sweden). The elute was moved to scintillation vials, 6 mL of Ultima Gold (Packard Instrument, Meriden, Conn., USA) was added, and the radioactivity was measured for 2 minutes using a liquid scintillation counter (Beckman LS6500, Beckman, Tokyo),. […]

[1] = Test compound concentration 1 μmol/L, substrate [3H]cAMP 0.2 μmol/L

T1 sequence (Q9Y233 340-1055): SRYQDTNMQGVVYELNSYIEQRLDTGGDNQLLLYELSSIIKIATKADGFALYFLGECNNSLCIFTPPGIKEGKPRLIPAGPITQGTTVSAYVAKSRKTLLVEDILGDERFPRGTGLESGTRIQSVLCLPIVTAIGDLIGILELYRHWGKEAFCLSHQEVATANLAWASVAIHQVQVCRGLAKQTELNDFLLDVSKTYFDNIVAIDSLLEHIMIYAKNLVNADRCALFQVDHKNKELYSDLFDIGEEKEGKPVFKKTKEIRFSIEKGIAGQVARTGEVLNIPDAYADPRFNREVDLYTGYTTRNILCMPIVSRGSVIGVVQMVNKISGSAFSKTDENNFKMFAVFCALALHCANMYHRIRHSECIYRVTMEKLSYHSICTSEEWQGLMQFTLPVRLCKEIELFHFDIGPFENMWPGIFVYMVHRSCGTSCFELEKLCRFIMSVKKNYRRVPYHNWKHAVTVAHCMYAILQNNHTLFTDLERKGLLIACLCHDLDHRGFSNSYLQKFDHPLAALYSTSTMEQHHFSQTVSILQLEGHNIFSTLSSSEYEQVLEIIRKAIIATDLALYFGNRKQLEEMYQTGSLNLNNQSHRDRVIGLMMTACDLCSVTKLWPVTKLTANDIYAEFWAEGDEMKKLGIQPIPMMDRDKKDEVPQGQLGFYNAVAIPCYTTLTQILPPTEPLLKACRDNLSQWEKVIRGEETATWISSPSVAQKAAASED

Row | SMILES | inhibition at 1 µM (PDE10A; [1]) [%] | IC50 (PDE10A; substrate [3H]cAMP 0.2 μmol/L) [nM] | melting point | inhibition at 1 µM (PDE10A) [%]
1 | Cc1c(-c2ccc(-c3ccccc3CNc3ccccc3)cc2)nc2ccc(F)cc2c1C(=O)O [Compound N, 6-Fluoro-3-methyl-2-[(2′-phenylamino)methylbiphenyl-4-yl]quinoline-4-carboxylic acid] | 99 | 13 | 222 to 224 °C | 
2 | COc1ccccc1-c1ccc(-c2nc3ccc(F)cc3c(C(=O)O)c2C)cc1 [D, 6-Fluoro-2-(2′-methoxybiphenyl-4-yl)-3-methylquinoline-4-carboxylic acid] | 99 | 11 | 283 to 295 °C | 
3 | Cc1ccccc1-c1ccc(-c2nc3ccc(F)cc3c(C(=O)O)c2C)cc1 [H, 6-Fluoro-3-methyl-2-(2′-methylbiphenyl-4-yl)quinoline-4-carboxylic acid] | 97 | 47 | 260 °C (dec.) | 
4 | Cc1c(-c2ccc(-c3ccccc3CO)cc2)nc2ccc(F)cc2c1C(=O)O [K, 6-Fluoro-2-(2′-hydroxymethylbiphenyl-4-yl)-3-methylquinoline-4-carboxylic acid] | 90 |  | 258 to 260 °C | 
5 | Cc1c(-c2ccc(-c3ccccc3CN3CCN(c4ccccc4)CC3)cc2)nc2ccc(F)cc2c1C(=O)O [L, 6-Fluoro-3-methyl-2-[21-(4-phenylpiperazin-1-yl)methylbiphenyl-4-yl]quinoline-4-carboxylic acid] | 99 | 21 | 189 to 190 °C | 
6 | Cc1c(-c2ccc(-c3ccccc3CN3CCOCC3)cc2)nc2ccc(F)cc2c1C(=O)O [M, 6-Fluoro-3-methyl-2-(2′-morpholinomethylbiphenyl-4-yl)quinoline-4-carboxylic acid] | 98 | 27 | 163 to 165 °C | 
7 | Cc1c(-c2ccc(-c3ccccc3-c3ccccc3)cc2)nc2ccc(F)cc2c1C(N)=O [O, 6-Fluoro-3-methyl-2-([1,1′:2′,1″-terphenyl]-4-yl)quinone-4-carboxamide] |  | 33 | 243 to 246 °C | 94
